Reference: PubChem BioAssay (NCI)
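Results reflect a 48-hour exposure of cells in 96-well plates to compound at five concentrations. Here, GI50 denotes the concentration required for 50% inhibition of growth. TGI: concentration producing complete growth inhibition.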

Key:
Assay in all cases: NCI-60 cell line screen, 48 h
[1] = tested on: HOP-62 NSCLC
[2] = tested on: MDA-MB-435
[3] = tested on: HL-60(TB) leukemia
[4] = tested on: NCI-H226 lung
[5] = tested on: K-562 leukemia
[6] = tested on: SF-539 CNS
[7] = tested on: SR leukemia
[8] = tested on: SK-MEL-5 melanoma
[9] = tested on: HT29 colon
[10] = tested on: A549 NSCLC

Compound | GI50 [1] | TGI [1] | GI50 [2] | TGI [2] | GI50 [3] | TGI [3] | GI50 [4] | TGI [4] | GI50 [5] | TGI [5] | GI50 [6] | TGI [6] | GI50 [7] | TGI [7] | GI50 [8] | TGI [8] | GI50 [9] | TGI [9] | GI50 [10] | TGI [10]
COc1ccc(-c2ccc3c(NC(=O)C4CC4)n[nH]c3n2)cc1 | 7.64 µM | > 22 µM | > 25 µM | > 25 µM | > 25 µM | > 25 µM | > 25 µM | > 25 µM | > 25 µM | > 25 µM | > 25 µM | > 25 µM | > 25 µM | > 25 µM | > 25 µM | > 25 µM | > 25 µM | > 25 µM | > 25 µM | > 25 µM
COc1ccc(-c2ccc(/C=C/C(=O)NO)cc2)cc1 | 1.31 µM | 3.11 µM | 2.12 µM | > 100 µM | 0.269 µM |  | 1.09 µM | 4.39 µM | 2.39 µM | > 100 µM | 0.913 µM | 5.18 µM | 0.378 µM | > 20.6 µM | 1.1 µM | 3 µM | 3.56 µM | > 100 µM | 0.317 µM | 6.14 µM
COc1cc(-c2cc(-c3ccc(N(C)C)cc3)nc(N3CCOCC3)c2C#N)cc(OC)c1OC | 0.921 µM | 10.6 µM | 0.843 µM | 13.4 µM | 0.468 µM |  | 0.27 µM | 0.995 µM | 0.961 µM | > 24.6 µM | 2.22 µM | > 54.8 µM | 0.26 µM | 4.04 µM | 0.171 µM | 0.729 µM | 0.385 µM | > 36 µM | 1.25 µM | > 100 µM
O=C(NCc1cccnc1)/C(=C\c1ccc(Br)cc1)S(=O)(=O)c1ccccc1 | 1.64 µM | 3.63 µM | 0.477 µM | 1.73 µM | 0.345 µM | 2.05 µM | 1.29 µM | 2.67 µM | 0.423 µM | 13 µM | 0.663 µM | 1.61 µM | 0.309 µM | 2.36 µM | 1.38 µM | 2.69 µM | 0.514 µM | 3.92 µM | 1.48 µM | 3.31 µM
COc1ccc(C(=O)c2cc(OC)c(OC)c(OC)c2)cc1OC(C)=O | 0.0618 µM | > 100 µM | < 0.01 µM | 0.0102 µM | < 0.0141 µM | < 0.0228 µM | 8.71 µM | > 100 µM | < 0.01 µM | > 100 µM | < 0.01 µM | 0.0376 µM | < 0.01 µM | > 75.2 µM | 0.0325 µM | 0.311 µM | 1.15 µM | > 100 µM | 0.115 µM | > 100 µM
O=C(/C=C/c1ccc(C(F)(F)F)cc1)c1ccc(Nc2nc(NCCO)nc(NCCO)n2)cc1 | 2.42 µM | 7.99 µM | 3.82 µM | 14.2 µM | 2.97 µM | 10.3 µM | 2.62 µM | 9.65 µM | 2.84 µM | 8.89 µM | 1.68 µM | 3.38 µM | 2.3 µM | 7.11 µM | 3.12 µM | 10.5 µM | 2.5 µM | 6.91 µM | 2.91 µM | 10.8 µM
COc1ccc(N2CCN(C(=O)c3ccccc3Nc3ccnc(C(F)(F)F)c3)CC2)cc1 | 54.8 µM | > 100 µM | 38 µM | > 100 µM | 32.3 µM | > 100 µM | 96.5 µM | > 100 µM | 59.3 µM | > 100 µM | > 100 µM | > 100 µM | 10.8 µM | > 100 µM | 10.3 µM | 29.4 µM | 77.1 µM | > 100 µM | 61.5 µM | > 100 µM
S=c1nc(-c2nc(=S)[nH]c3c2CCCCCCCCCC3)c2c([nH]1)CCCCCCCCCC2 |  | > 100 µM |  | > 100 µM |  | > 100 µM |  | > 100 µM |  | > 100 µM |  | > 100 µM |  | > 100 µM |  | > 100 µM |  | > 100 µM |  | > 100 µM
COc1ccc(/C=C/c2c(C(=O)/C=C/c3ccc(Cl)cc3)c(C)nc3ccccc23)cc1 | 2.12 µM | 4.83 µM | 2.12 µM | 4.67 µM | 2.15 µM | 5.62 µM | 1.8 µM | 3.72 µM | 2.19 µM | > 100 µM | 1.78 µM | 3.27 µM | 1.37 µM | > 100 µM | 1.72 µM | 3.11 µM | 1.61 µM | 6.05 µM | 2.69 µM | 9.6 µM
O=C(c1ccccc1Nc1ccnc(C(F)(F)F)c1)N1CCN(c2cccc(Cl)c2)CC1 | 28.2 µM | > 100 µM | 16.1 µM | 66.7 µM | 16.2 µM | 59 µM | 15 µM | 49.2 µM | 19.2 µM | > 100 µM | 17.8 µM | 41.1 µM | 13.5 µM | > 58.7 µM | 8.29 µM | 21.8 µM | 19.2 µM | 53.3 µM | 21.2 µM | > 100 µM
C=C(C=O)C1CC(=O)C(C(=O)OC)[C@@H]2O[C@@](C)(CC2=O)C[C@@H]2OC(=O)[C@]3(O[C@@H]23)[C@@H](C(=O)OC)C1 (stereo partly drawn) | 25.6 µM | 58.8 µM | 14.3 µM | 33 µM | 20.1 µM | 53.5 µM | 24.9 µM | > 100 µM | 20.1 µM | > 100 µM | 18 µM | 61.2 µM | 2.63 µM | 7.96 µM | 17 µM | 38.5 µM | 29 µM | > 100 µM | 29 µM | 67.1 µM
O=P(Oc1ccc(Cl)cc1)(Oc1ccc(Cl)cc1)N1CC1 |  | > 10 µM |  | > 10 µM |  | > 10 µM |  | > 10 µM |  | > 10 µM |  | > 10 µM |  | > 10 µM |  | > 10 µM |  | > 10 µM |  | > 10 µM
